Data: PubChem BioAssay (NCI)
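48-hour exposure; five concentrations; linearly interpolated endpoints. The concentration for 50% growth inhibition is given as GI50. At the TGI there is no net growth.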

Experiments:
Test in all cases: NCI-60 cell line screen, 48 h
[1] = test system: 786-0 renal
[2] = test system: A498 renal
[3] = test system: A549 NSCLC
[4] = test system: ACHN renal
[5] = test system: BT-549 breast
[6] = test system: CAKI-1 renal
[7] = test system: CCRF-CEM leukemia
[8] = test system: COLO 205 colon
[9] = test system: DU-145 prostate
[10] = test system: HCC-2998 colon
[11] = test system: HCT-116 colon
[12] = test system: HCT-15 colon
[13] = test system: HL-60(TB) leukemia
[14] = test system: HOP-62 NSCLC
[15] = test system: HOP-92 NSCLC
[16] = test system: HS 578T breast
[17] = test system: HT29 colon
[18] = test system: IGROV1 ovarian
[19] = test system: K-562 leukemia
[20] = test system: KM12 colon
[21] = test system: LOX IMVI melanoma
[22] = test system: M14 melanoma
[23] = test system: MALME-3M melanoma
[24] = test system: MCF7 breast
[25] = test system: MDA-MB-231 breast
[26] = test system: MDA-MB-435
[27] = test system: MOLT-4 leukemia
[28] = test system: NCI-H226 lung
[29] = test system: NCI-H23 lung
[30] = test system: NCI-H460 lung
[31] = test system: NCI-H522 lung
[32] = test system: NCI/ADR-RES ovarian
[33] = test system: OVCAR-3 ovarian
[34] = test system: OVCAR-4 ovarian
[35] = test system: OVCAR-5 ovarian
[36] = test system: OVCAR-8 ovarian
[37] = test system: PC-3 prostate
[38] = test system: RPMI-8226 leukemia
[39] = test system: RXF 393 renal
[40] = test system: SF-268 CNS
[41] = test system: SF-295 CNS
[42] = test system: SF-539 CNS
[43] = test system: SK-MEL-2 melanoma
[44] = test system: SK-MEL-28 melanoma
[45] = test system: SK-MEL-5 melanoma
[46] = test system: SK-OV-3 ovarian
[47] = test system: SN12C renal
[48] = test system: SNB-19 CNS
[49] = test system: SNB-75 CNS
[50] = test system: SR leukemia
[51] = test system: SW-620 colon
[52] = test system: T-47D breast
[53] = test system: U251 CNS
[54] = test system: UACC-257 melanoma
[55] = test system: UACC-62 melanoma
[56] = test system: UO-31 renal

## O=C(CI)OCC(COC(=O)CI)OC(=O)CI
[1]
  GI50: 2.38 µM
  TGI: 6.28 µM
[2]
  GI50: 10.9 µM
  TGI: 26.7 µM
[3]
  GI50: 16.8 µM
  TGI: 35.5 µM
[4]
  GI50: 1.84 µM
  TGI: 3.37 µM
[5]
  GI50: 4.56 µM
  TGI: 15.7 µM
[6]
  GI50: 1.96 µM
  TGI: 3.91 µM
[7]
  GI50: 1.73 µM
  TGI: 3.95 µM
[8]
  GI50: 1.88 µM
  TGI: 3.52 µM
[9]
  GI50: 8.62 µM
  TGI: 22.3 µM
[10]
  GI50: 16.3 µM
  TGI: 31.3 µM
[11]
  GI50: 1.67 µM
  TGI: 3.41 µM
[12]
  GI50: 1.73 µM
  TGI: 3.61 µM
[13]
  GI50: 1.99 µM
  TGI: 4.19 µM
[14]
  GI50: 10.8 µM
  TGI: 27.8 µM
[15]
  GI50: 1.86 µM
  TGI: 4.03 µM
[16]
  GI50: 4.88 µM
  TGI: 27.7 µM
[17]
  GI50: 2.92 µM
  TGI: 8.91 µM
[18]
  GI50: 1.75 µM
  TGI: 3.5 µM
[19]
  GI50: 2.39 µM
  TGI: 5.73 µM
[20]
  GI50: 11.7 µM
  TGI: 26.8 µM
[21]
  GI50: 1.03 µM
  TGI: 3 µM
[22]
  GI50: 7.57 µM
  TGI: 22 µM
[23]
  GI50: 1.6 µM
  TGI: 3.29 µM
[24]
  GI50: 3.38 µM
  TGI: 14.8 µM
[25]
  GI50: 9.3 µM
  TGI: 24.6 µM
[26]
  GI50: 10.6 µM
  TGI: 23.5 µM
[27]
  GI50: 2.06 µM
  TGI: 4.57 µM
[28]
  GI50: 15.6 µM
  TGI: 38.8 µM
[29]
  GI50: 5.36 µM
  TGI: 19.6 µM
[30]
  GI50: 18 µM
  TGI: 36.9 µM
[31]
  GI50: 0.506 µM
  TGI: 1.27 µM
[32]
  GI50: 18.4 µM
  TGI: 45.3 µM
[33]
  GI50: 2.07 µM
  TGI: 3.94 µM
[34]
  GI50: 1.8 µM
  TGI: 4.3 µM
[35]
  GI50: 16.4 µM
  TGI: 32.8 µM
[36]
  GI50: 2.53 µM
  TGI: 6.92 µM
[37]
  GI50: 6.46 µM
  TGI: 20.7 µM
[38]
  GI50: 2.22 µM
  TGI: 4.96 µM
[39]
  GI50: 2.4 µM
  TGI: 7.55 µM
[40]
  GI50: 13.2 µM
  TGI: 29.5 µM
[41]
  GI50: 16.3 µM
  TGI: 32 µM
[42]
  GI50: 13.7 µM
  TGI: 27.2 µM
[43]
  GI50: 10.3 µM
  TGI: 25.5 µM
[44]
  GI50: 5.54 µM
  TGI: 16 µM
[45]
  GI50: 13.8 µM
  TGI: 27.6 µM
[46]
  GI50: 17.3 µM
  TGI: 31.1 µM
[47]
  GI50: 4.01 µM
  TGI: 15 µM
[48]
  GI50: 16.5 µM
  TGI: 32.7 µM
[49]
  GI50: 13.7 µM
  TGI: 29.3 µM
[50]
  GI50: 2.36 µM
  TGI: 7.58 µM
[51]
  GI50: 1.92 µM
  TGI: 4 µM
[52]
  GI50: 1.98 µM
  TGI: 4.46 µM
[53]
  GI50: 11.9 µM
  TGI: 25.2 µM
[54]
  GI50: 4.06 µM
  TGI: 15.4 µM
[55]
  GI50: 3.05 µM
  TGI: 12.3 µM
[56]
  GI50: 1.39 µM
  TGI: 2.84 µM
